# In patent publication US10611740B2, “Aryl dihydro-2H-benzo[b][1,4]oxazine sulfonamide and related compounds for use as agonists of RORγ and the treatment of disease” (Lycera Corporation, priority 2015, dated 2020):
# Tests used:
# RORγ-LBD = target: T1, RORγ-LBD (Homo sapiens, UniProt P51449); experiment: RORγ-Ligand Binding Domain (LBD) TR-FRET Assay; assay type: biochemical;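 for TR-FRET Assay Max Response: 665/615 nm ratio relative to signal without ursolic acid or compound set at 100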
# T1 construct: made in house; host or cells: SF9 cells (baculovirus)
# T1 sequence (P51449 269-508 limits assumed): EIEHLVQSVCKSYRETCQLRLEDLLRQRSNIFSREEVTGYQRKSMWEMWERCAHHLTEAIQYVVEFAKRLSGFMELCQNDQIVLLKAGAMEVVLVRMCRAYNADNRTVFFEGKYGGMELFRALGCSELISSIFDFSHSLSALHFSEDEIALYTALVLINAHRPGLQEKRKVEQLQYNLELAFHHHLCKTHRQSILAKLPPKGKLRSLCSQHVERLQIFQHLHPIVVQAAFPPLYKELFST
# Outline: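 Compounds, diluted in DMSO and then in assay buffer (1% DMSO final), were combined with His-tagged RORγ-LBD lysate at roughly 3 nM final and a 200 nM biotinylated SRC1 LXXLL peptide. Ursolic acid was included at 2 μM final. Coactivator recruitment was detected by TR-FRET.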
# Gal4-RORγ-LBD = target: T2, Gal4-RORγ-LBD (Homo sapiens, UniProt P51449); experiment: Gal4-RORγ Luciferase Reporter Assay in HEK-293T Cells; assay type: cell-based; conditions: HEK-293 cells, luciferase reporter, with 2 μM ursolic acid
# T2 construct: expressed in transfected cells; host or cells: HEK-293 cells (pcDNA3.1neo plasmid)
# T2 sequence (P51449 269-508 limits assumed): T1 sequence (P51449 269-508 limits assumed)
# Outline: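 HEK-293 cells were transiently co-transfected with Gal4-RORγ-LBD and pGL4.31 Gal4-luciferase, with ursolic acid added at 2 μM final. Compounds were incubated overnight at 37° C. in 0.2% DMSO and luminescence read with One-Glo. Max Response is the upper plateau of a 4-parameter logistic fit, with signal lacking ursolic acid or compound set to 100.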
Structure (SMILES),EC50 (RORγ-LBD) [nM],TR-FRET Assay Max Response (RORγ-LBD),EC50 (Gal4-RORγ-LBD) [nM],Gal4-RORγ Assay Max Response (Gal4-RORγ-LBD)
"O=C(O)CC[C@H]1CN(S(=O)(=O)c2cccc(C(F)(F)F)c2)c2cc(-c3nccc(C(F)(F)F)n3)ccc2O1 [Compound 4B, (S)-3-(4-((3-(trifluoromethyl)-phenyl)sulfonyl)-6-(4-(trifluoromethyl)pyrimidin-2-yl)-3,4-dihydro-2H-benzo[b][1,4]oxazin-2-yl)propanoic acid]",< 500,*** (The symbol “***” indicates a value in the range of greater than 150 to 200),< 500,** (The symbol “**” indicates a value in the range of greater than 90 to 150)
"COc1cc(-c2ccc3c(c2)N(S(=O)(=O)c2cccc(C(F)(F)F)c2)C[C@H](CCC(=O)O)O3)ccn1 [Compound 4D, (S)-3-(6-(2-methoxypyridin-4-yl)-4-((3-(trifluoromethyl)-phenyl)sulfonyl)-3,4-dihydro-2H-benzo[b][1,4]oxazin-2-yl)propanoic acid]",< 500,*** (The symbol “***” indicates a value in the range of greater than 150 to 200),500 to 5000,* (The symbol “*” indicates a value in the range of 25 to 90)
"COc1cccc(-c2ccc3c(c2)N(S(=O)(=O)c2cccc(C(F)(F)F)c2)C[C@H](CCC(=O)O)O3)n1 [Compound 4E, (S)-3-(6-(6-methoxypyridin-2-yl)-4-((3-(trifluoromethyl)-phenyl)sulfonyl)-3,4-dihydro-2H-benzo[b][1,4]oxazin-2-yl)propanoic acid]",< 500,**** (The symbol “****” indicates a value greater than 200),500 to 5000,** (The symbol “**” indicates a value in the range of greater than 90 to 150)
"COc1ccnc(-c2ccc3c(c2)N(S(=O)(=O)c2cccc(C(F)(F)F)c2)C[C@H](CCC(=O)O)O3)c1 [Compound 4F, (S)-3-(6-(4-methoxypyridin-2-yl)-4-((3-(trifluoromethyl)-phenyl)sulfonyl)-3,4-dihydro-2H-benzo[b][1,4]oxazin-2-yl)propanoic acid]",< 500,**** (The symbol “****” indicates a value greater than 200),500 to 5000,** (The symbol “**” indicates a value in the range of greater than 90 to 150)
"O=C(O)CC[C@H]1CN(S(=O)(=O)c2cccc(C(F)(F)F)c2)c2cc(-c3nc(C(F)(F)F)cs3)ccc2O1 [Compound 4G, (S)-3-(4-((3-(trifluoromethyl)phenyl)sulfonyl)-6-(4-(trifluoromethyl)thiazol-2-yl)-3,4-dihydro-2H-benzo[b][1,4]oxazin-2-yl)propanoic acid]",< 500,**** (The symbol “****” indicates a value greater than 200),500 to 5000,** (The symbol “**” indicates a value in the range of greater than 90 to 150)
"O=C(O)CC[C@H]1CN(S(=O)(=O)c2cccc(C(F)(F)F)c2)c2cc(-c3ncc(C(F)(F)F)s3)ccc2O1 [Compound 4H, (S)-3-(4-((3-(trifluoromethyl)-phenyl)sulfonyl)-6-(5-(trifluoromethyl)thiazol-2-yl)-3,4-dihydro-2H-benzo[b][1,4]oxazin-2-yl)propanoic acid]",< 500,*** (The symbol “***” indicates a value in the range of greater than 150 to 200),500 to 5000,* (The symbol “*” indicates a value in the range of 25 to 90)
"O=C(O)CC[C@H]1CN(S(=O)(=O)c2cccc(C(F)(F)F)c2)c2cc(-c3cccc(Cl)n3)ccc2O1 [Compound 4I, (S)-3-(6-(6-chloropyridin-2-yl)-4-((3-(trifluoromethyl)phenyl)-sulfonyl)-3,4-dihydro-2H-benzo[b][1,4]oxazin-2-yl)propanoic acid]",< 500,*** (The symbol “***” indicates a value in the range of greater than 150 to 200),< 500,** (The symbol “**” indicates a value in the range of greater than 90 to 150)
"O=C(O)CC[C@H]1CN(S(=O)(=O)c2cccc(C(F)(F)F)c2)c2cc(-c3cccn4ccnc34)ccc2O1 [Compound 4J, (S)-3-(6-(imidazo[1,2-a]pyridin-8-yl)-4-((3-(trifluoromethyl)-phenyl)sulfonyl)-3,4-dihydro-2H-benzo[b][1,4]oxazin-2-yl)propanoic acid]",< 500,**** (The symbol “****” indicates a value greater than 200),500 to 5000,** (The symbol “**” indicates a value in the range of greater than 90 to 150)
"Cn1cncc1-c1ccc2c(c1)N(S(=O)(=O)c1cccc(C(F)(F)F)c1)C[C@H](CCC(=O)O)O2 [Compound 4K, (S)-3-(6-(1-methyl-1H-imidazol-5-yl)-4-((3-(trifluoromethyl)-phenyl)sulfonyl)-3,4-dihydro-2H-benzo[b][1,4]oxazin-2-yl)propanoic acid]",500 to 5000,**** (The symbol “****” indicates a value greater than 200),> 10000,–
"Cn1ccnc1-c1ccc2c(c1)N(S(=O)(=O)c1cccc(C(F)(F)F)c1)C[C@H](CCC(=O)O)O2 [Compound 4L, (S)-3-(6-(1-methyl-1H-imidazol-2-yl)-4-((3-(trifluoromethyl)-phenyl)sulfonyl)-3,4-dihydro-2H-benzo[b][1,4]oxazin-2-yl)propanoic acid]",> 10000,**** (The symbol “****” indicates a value greater than 200),> 10000,–
"Cn1cnc(-c2ccc3c(c2)N(S(=O)(=O)c2cccc(C(F)(F)F)c2)C[C@H](CCC(=O)O)O3)n1 [Compound 4M, (S)-3-(6-(1-methyl-1H-1,2,4-triazol-3-yl)-4-((3-(trifluoro-methyl)phenyl)sulfonyl)-3,4-dihydro-2H-benzo[b][1,4]-oxazin-2-yl)propanoic acid]",< 500,**** (The symbol “****” indicates a value greater than 200),> 10000,* (The symbol “*” indicates a value in the range of 25 to 90)
"O=C(O)CC[C@H]1CN(S(=O)(=O)c2cccc(C(F)(F)F)c2)c2cc(-c3ncc4ccccn34)ccc2O1 [Compound 4N, (S)-3-(6-(imidazo[1,5-a]pyridin-3-yl)-4-((3-(trifluoromethyl)-phenyl)sulfonyl)-3,4-dihydro-2H-benzo[b][1,4]oxazin-2-yl)propanoic acid]",< 500,**** (The symbol “****” indicates a value greater than 200),500 to 5000,** (The symbol “**” indicates a value in the range of greater than 90 to 150)
"O=C(O)CC[C@H]1CN(S(=O)(=O)c2cccc(C(F)(F)F)c2)c2cc(-c3cnn4ccccc34)ccc2O1 [Compound 4O, (S)-3-(6-(pyrazolo[1,5-a]pyridin-3-yl)-4-((3-(trifluoromethyl)-phenyl)sulfonyl)-3,4-dihydro-2H-benzo[b][1,4]oxazin-2-yl)propanoic acid]",< 500,*** (The symbol “***” indicates a value in the range of greater than 150 to 200),500 to 5000,** (The symbol “**” indicates a value in the range of greater than 90 to 150)
"O=C(O)CC[C@H]1CN(S(=O)(=O)c2cccc(C(F)(F)F)c2)c2cc(-c3cccc4nccn34)ccc2O1 [Compound 4P, (S)-3-(6-(imidazo[1,2-a]pyridin-5-yl)-4-((3-(trifluoromethyl)-phenyl)sulfonyl)-3,4-dihydro-2H-benzo[b][1,4]oxazin-2-yl)propanoic acid]",< 500,** (The symbol “**” indicates a value in the range of greater than 90 to 150),5000 to 10000,** (The symbol “**” indicates a value in the range of greater than 90 to 150)
"Cn1cnc(-c2ccc3c(c2)N(S(=O)(=O)c2cccc(C(F)(F)F)c2)C[C@H](CCC(=O)O)O3)c1 [Compound 4Q, (S)-3-(6-(1-methyl-1H-imidazol-4-yl)-4-((3-(trifluoromethyl)-phenyl)sulfonyl)-3,4-dihydro-2H-benzo[b][1,4]oxazin-2-yl)propanoic acid]",500 to 5000,** (The symbol “**” indicates a value in the range of greater than 90 to 150),> 10000,–
"O=C(O)CC[C@H]1CN(S(=O)(=O)c2cccc(C(F)(F)F)c2)c2cc(-c3cccc(C4CC4)c3)ccc2O1 [Compound 4R, (S)-3-(6-(3-cyclopropylphenyl)-4-((3-(trifluoromethyl)phenyl)-sulfonyl)-3,4-dihydro-2H-benzo[b][1,4]oxazin-2-yl)propanoic acid]",< 500,**** (The symbol “****” indicates a value greater than 200),< 500,**** (The symbol “****” indicates a value greater than 200)
